{"source": "patent US4772590A", "about": "“Oily composition of aclarubicin or hydrochloride thereof” (priority 1983, dated 1988)", "key": {"[1]": {"experiment": "solubilization of aclarubicin or aclarubicin hydro-chloride in fats and oils by acids", "type": "physicochemical"}, "[2]": {"experiment": "solubility of aclarubicin or its hydrochloride in solvents and in fats and oils", "type": "physicochemical", "conditions": "for solubility: organic solvent or mixture"}}, "note": "Where a name gives a salt, the structure may show the parent alone. Read-outs that look alike come from different tables or passages of the source.", "data": [{"smiles": "O=C(O)/C=C/C(=O)O", "note": "[fumaric acid]", "values": [{"measurement": "dissolution of polycarboxylic acid in fats and oils", "setting": "[1]", "result": "not dissolved in fats and oils"}]}, {"smiles": "CC[C@@]1(O)C[C@H](O[C@H]2C[C@H](N(C)C)[C@H](O[C@H]3C[C@H](O)[C@H](O[C@H]4CCC(=O)[C@H](C)O4)[C@H](C)O3)[C@H](C)O2)c2c(cc3c(c2O)C(=O)c2c(O)cccc2C3=O)[C@H]1C(=O)OC", "note": "[Aclarubicin, methyl(1R, 2R, 4S)-2-ethyl-1,2,3,4,6,11-hexahydro-2,5,7-trihydroxy-6,11-dioxo-4-{[2,3,6-trideoxy-4-O-[2,6-dideoxy-4-O-((2R,6S)-tetrahydro-6-methyl-5-oxo-2H-pyran-2-yl)-α-1-lyxohexopyranocyl]-3-dimethylamino-α-1-lyxo-hexopyranocyl]oxy}-1-naphthacene carboxylate]", "values": [{"measurement": "solubility", "setting": "[2]; olive oil, olive oil, aclarubicin, read-out: solubility in olive oil", "result": 10000, "unit": "µg/mL"}, {"measurement": "solubility", "setting": "[2]; sesame oil, sesame oil, aclarubicin, read-out: solubility in sesame oil", "result": 10000, "unit": "µg/mL"}]}, {"smiles": "CC[C@@]1(O)C[C@H](O[C@H]2C[C@H](N(C)C)[C@H](O[C@H]3C[C@H](O)[C@H](O[C@H]4CCC(=O)[C@H](C)O4)[C@H](C)O3)[C@H](C)O2)c2c(cc3c(c2O)C(=O)c2c(O)cccc2C3=O)[C@H]1C(=O)OC", "note": "[Aclarubicin hydrochloride]", "values": [{"measurement": "solubility in acetone", "setting": "[2]; acetone", "result": "freely soluble"}, {"measurement": "solubility in ether", "setting": "[2]; ether", "result": "practically insoluble"}, {"measurement": "solubility in fats and oils", "setting": "[2]; fats and oils", "result": "very sparingly soluble"}, {"measurement": "solubility in methanol", "setting": "[2]; methanol", "result": "freely soluble"}, {"measurement": "solubility in n-hexane", "setting": "[2]; n-hexane", "result": "practically insoluble"}, {"measurement": "solubility", "setting": "[2]; olive oil, olive oil, aclarubicin hydrochloride, read-out: solubility in olive oil", "result": "~4", "unit": "µg/mL"}, {"measurement": "solubility", "setting": "[2]; sesame oil, sesame oil, aclarubicin hydrochloride, read-out: solubility in sesame oil", "result": 16, "unit": "µg/mL"}, {"measurement": "solubility in water", "setting": "[2]; water", "result": "freely soluble"}]}]}
